Reference: US9565840B2, “Fibrotic non-human animal, and use thereof” (KYOTO UNIVERSITY, priority 2012, dated 2017)
Residues, ends and D or L forms follow the SMILES beside them. *: point of attachment. Cbz = O=C(OCc1ccccc1)*

Tested on: IKKβ
Assay: IKKβ level in fibroblasts from the skin of scleroderma patients, MG132 pre-treatment before IL-1β stimulation
Type: cell-based, human
Settings: fibroblast from the skin of scleroderma patients; 2 μM MG132 for 2 hr before IL-1β (2.5 ng/mL, 60 min) stimulation; FIG. 11-3
Method: The skin of scleroderma patients (n=5) and healthy individual (n=5) was collected by biopsy, and fibroblast was prepared. The fibroblast was cultured in DMEM medium added with L-glutamine, penicillin/streptomycin and 10% FCS at 37° C., 5% CO2 concentration. After culture, nuclear protein was extracted from the fibroblast by using NE-PER nuclear protein cytoplasmic protein separation extraction kit (Thermo Scientific), and the p65 protein levels of the whole-cell lysate and nuclear extract were compared. RNA was isolated from the fibroblast by using RNA aqueous (trade mark) kit (Applied Biosytems (trade mark)), and the p65 mRNA level was compared using TaqMan (registered trade mark) Gene Expression Assays kit (Applied Biosytems (trade mark)). The NFκB activity of the fibroblast was measured by NFκB p65 Transcription Assay Kit (Thermo Scientific) and compared. […] Further, fibroblasts from the skin of scleroderma patients were stimulated for 60 min with IL-1β (2.5 ng/mL), and IKKβ and nuclear p65 protein amounts were compared. […] In addition, fibroblast from the skin of scleroderma patients was treated with 2 μM MG132 for 2 hr before the aforementioned IL-β stimulation, and the IKKβ level was measured.

## CC(C)C[C@@H](C=O)NC(=O)[C@H](CC(C)C)NC(=O)[C@H](CC(C)C)NC(=O)OCc1ccccc1 [MG132] (Cbz-Leu-Leu-Leu-aldehyde)
  IKKβ level: recovered the IKKβ level
